Laboratory results published in patent publication US10350271B2, “Lipidated peptides for lowering blood glucose” (USTAV ORGANICKE CHEMIE A BIOCHEMIE AKADEMIE VED CR, V.V.I., priority 2014, dated 2019).
Square brackets hold non-standard residues; d marks the D form. Ends that are not written are not given here. Peptide text beside a SMILES is read from it. * marks the point of attachment. Phe(4-NO2) = N[C@@H](Cc1ccc([N+](=O)[O-])cc1)C(=O)O; Phe(F5) = N[C@@H](Cc1c(F)c(F)c(F)c(F)c1F)C(=O)O; 1Nal = N[C@@H](Cc1cccc2ccccc12)C(=O)O; Myristoyl = CCCCCCCCCCCCCC(=O)*; Nle = CCCC[C@H](N)C(=O)O; Sar = CNCC(=O)O

Legend:
[1] = molecular target: T1, human PrRP receptor GPR10 (Homo sapiens, UniProt P49683); assay: Competitive binding in CHO cells transfected with human GPR10 (human 125I-PrRP31); conditions: for % of PrRP31, GPR10 human receptor transfected in CHO cells: affinity relative to PrRP31
T1 construct: host or cells: CHO cells
T1 sequence (P49683 1-370): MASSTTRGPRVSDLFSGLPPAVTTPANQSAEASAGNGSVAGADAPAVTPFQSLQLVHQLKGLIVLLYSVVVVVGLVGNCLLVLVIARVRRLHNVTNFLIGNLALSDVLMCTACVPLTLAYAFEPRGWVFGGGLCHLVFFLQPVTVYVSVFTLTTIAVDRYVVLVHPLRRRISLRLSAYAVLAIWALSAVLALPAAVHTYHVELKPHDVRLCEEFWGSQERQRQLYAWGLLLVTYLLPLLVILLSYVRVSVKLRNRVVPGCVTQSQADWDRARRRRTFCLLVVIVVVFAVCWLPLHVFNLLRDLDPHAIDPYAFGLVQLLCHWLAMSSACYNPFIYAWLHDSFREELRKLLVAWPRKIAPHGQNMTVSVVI
Protocol: (§1) Competitive binding experiments were performed according to Motulsky and Neubig (Motulsky, A., et al., “Analyzing radioligand binding data,” Curr Protoc Neurosci, Chapter 7, Unit 7.5, 2002). Binding experiments were conducted with rat pituitary cells, and with Chinese Hamster Ovary (CHO) cells as follows:
CHO cells transfected with human PrRP receptor GPR10 (Perkin Elmer, USA) were grown on 24-well plates coated with polyethyleneimine. The cells were grown to the optimal density of 40-80 thousand cells per well. The following agents were used for the experiment: binding buffer (25 mmol·l^−1 Tris, pH 7.4; 118 mmol·l^−1 NaCl, 10 mmol·l^−1 MgCl2, 10 mmol·l^−1 CaCl2, 5.5 mmol·l^−1 glucose, 0.5 mg/ml BSA), unlabeled analogs of PrRP (i.e. the analog being tested) at a final concentration between 10^−11 to 10^−4 mol·l^−1, and radiolabeled human ^125I-PrRP31 at a final concentration of 5×10^−11 mol·l^−1.
(§2) Plates were incubated for 60 minutes at room temperature. After incubation, the cells were solubilized in 0.1 mol/l solution of NaOH, and the radioactivity bound to the cells was counted using a γ-counter. The experiments were performed in duplicate, and repeated at least three times.
(§3) Graph Pad Prism Software (San Diego, Calif., USA) was used for evaluating the competitive binding experiments. Nonlinear regression was performed using a onsite binding model.

[2] = molecular target: T2, rat PrRP receptor (Rattus norvegicus, UniProt Q64121); assay: Competitive binding in RC-4B/C rat pituitary cells (125I-rat PrRP31); conditions: for % of PrRP31, RC-4B/C rat pituitary cells: affinity relative to PrRP31
T2 construct: host or cells: RC-4B/C rat pituitary cell line
T2 sequence (Q64121 1-370): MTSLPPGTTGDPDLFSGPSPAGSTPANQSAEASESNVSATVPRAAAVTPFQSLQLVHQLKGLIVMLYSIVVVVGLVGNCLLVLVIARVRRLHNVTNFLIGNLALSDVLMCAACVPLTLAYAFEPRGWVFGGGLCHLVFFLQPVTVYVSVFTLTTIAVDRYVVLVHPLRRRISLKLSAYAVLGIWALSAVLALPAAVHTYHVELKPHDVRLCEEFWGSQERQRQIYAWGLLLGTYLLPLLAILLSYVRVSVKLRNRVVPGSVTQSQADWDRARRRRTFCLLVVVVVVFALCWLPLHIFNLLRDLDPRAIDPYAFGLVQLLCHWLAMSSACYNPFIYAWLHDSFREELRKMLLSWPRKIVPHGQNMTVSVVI
Protocol: as §1
The rat pituitary cell line RC-4B/C (ATCC, Manassas, USA) was grown on 24-well plates which had their bottom coated with polyethyleneimine. The cells were grown to the optimal density of 300-450 thousand cells per well. The following agents were used for the experiment: binding buffer (20 mmol·l^−1 HEPES, Ph 7.4; 118 mmol·l^−1 NaCl, 4.7 mmol·l^−1 KCl, 5 mmol·l^−1 MgCl2, 5.5 mmol·l^−1 glucose, 1 mg/ml BSA, 0.1 BPTI), unlabeled analogs of PrRP (i.e. the analog being tested) at a final concentration between 10^−11 to 10^−4 mol·l^−1, and rat ^125I-PrRP31 (labeled with radioactive Iodine-125) at a final concentration of […] (Maixnerová et al., 2011).
as §2, §3

Row | % of PrRP31, GPR10 human receptor transfected in CHO cells [1] [%] | % of PrRP31, RC-4B/C rat pituitary cells [2] [%] | Ki ([1]; CHO cells, human 125I-PrRP31, read-out: Ki, GPR10 human receptor transfected in CHO cells) [nM] | Ki ([2]; RC-4B/C cells, displacement of 125I-rat PrRP31, read-out: Ki, RC-4B/C rat pituitary cells ^25I-rat PrRP31) [nM] | Molecule
1 | 46 | 68 |  |  | CCCCCCCCCCCCCC(=O)N[C@H](C(=O)N1CCC[C@H]1C(=O)N[C@@H](CC(=O)O)C(=O)N[C@H](C(=O)N[C@@H](CC(N)=O)C(=O)N1CCC[C@H]1C(=O)N[C@@H](C)C(=O)N[C@@H](Cc1c[nH]c2ccccc12)C(=O)N[C@@H](Cc1ccc(O)cc1)C(=O)N[C@H](C(=O)NCC(=O)N[C@@H](CCCNC(=N)N)C(=O)NCC(=O)N[C@@H](C)C(=O)N[C@@H](CCCNC(=N)N)C(=O)N1CCC[C@H]1C(=O)N[C@@H](Cc1ccccc1)C(=O)NCC(=O)N[C@@H](CCCNC(=N)N)C(=O)N[C@@H](Cc1ccccc1)C(N)=O)[C@@H](C)O)[C@@H](C)CC)[C@@H](C)O [Analog 32] (Myristoyl-TPDINPAWYTGRGARPFGRF-NH2)
2 | 11 | 4.8 |  |  | CCCC[C@H](NC(=O)[C@H](CO)NC(=O)[C@H](Cc1c[nH]cn1)NC(=O)[C@H](CCC(N)=O)NC(=O)[C@H](Cc1c[nH]cn1)NC(=O)[C@H](C)NC(=O)[C@H](CCCNC(=N)N)NC(=O)[C@@H](N)CO)C(=O)N[C@@H](CCC(=O)O)C(=O)N[C@H](C(=O)N[C@@H](CCCNC(=N)N)C(=O)N[C@H](C(=O)N1CCC[C@H]1C(=O)N[C@@H](CC(=O)O)C(=O)N[C@H](C(=O)N[C@@H](CC(N)=O)C(=O)N1CCC[C@H]1C(=O)N[C@@H](C)C(=O)N[C@@H](Cc1c[nH]c2ccccc12)C(=O)N[C@@H](Cc1ccc(O)cc1)C(=O)N[C@H](C(=O)NCC(=O)N[C@@H](CCCNC(=N)N)C(=O)NCC(=O)N[C@H](C(=O)N[C@@H](CCCNC(=N)N)C(=O)N1CCC[C@H]1C(=O)N[C@H](C(=O)NCC(=O)N[C@@H](CCCNC(=N)N)C(=O)N[C@@H](Cc1cccc2ccccc12)C(N)=O)C(C)C)[C@@H](C)CC)[C@@H](C)O)[C@@H](C)CC)[C@@H](C)O)[C@@H](C)O [Analog 10] (H-SRAHQHS[Nle]ETRTPDINPAWYTGRGIRPVGR[1Nal]-NH2)
3 | 125 | 1541 |  |  | CCCCCCCCCCCCCC(=O)N[C@H](C(=O)N1CCC[C@H]1C(=O)N[C@@H](CC(=O)O)C(=O)N[C@H](C(=O)N[C@@H](CC(N)=O)C(=O)N1CCC[C@H]1C(=O)N[C@@H](C)C(=O)N[C@@H](Cc1c[nH]c2ccccc12)C(=O)N[C@@H](Cc1ccc(O)cc1)C(=O)N[C@H](C(=O)NCC(=O)N[C@@H](CCCNC(=N)N)C(=O)N(C)CC(=O)N[C@H](C(=O)N[C@@H](CCCNC(=N)N)C(=O)N1CCC[C@H]1C(=O)N[C@H](C(=O)NCC(=O)N[C@@H](CCCNC(=N)N)C(=O)N[C@@H](Cc1ccccc1)C(N)=O)C(C)C)[C@@H](C)CC)[C@@H](C)O)[C@@H](C)CC)[C@@H](C)O [Analog 28] (Myristoyl-TPDINPAWYTGR[Sar]IRPVGRF-NH2)
4 | 81 | 2.5 | 4.8 ± 0.88 | 19.9 ± 5.9 | CCCC[C@H](NC(=O)[C@H](CO)NC(=O)[C@H](Cc1c[nH]cn1)NC(=O)[C@H](CCC(N)=O)NC(=O)[C@H](Cc1c[nH]cn1)NC(=O)[C@H](C)NC(=O)[C@H](CCCNC(=N)N)NC(=O)[C@@H](N)CO)C(=O)N[C@@H](CCC(=O)O)C(=O)N[C@H](C(=O)N[C@@H](CCCNC(=N)N)C(=O)N[C@H](C(=O)N1CCC[C@H]1C(=O)N[C@@H](CC(=O)O)C(=O)N[C@H](C(=O)N[C@@H](CC(N)=O)C(=O)N1CCC[C@H]1C(=O)N[C@@H](C)C(=O)N[C@@H](Cc1c[nH]c2ccccc12)C(=O)N[C@@H](Cc1ccc(O)cc1)C(=O)N[C@H](C(=O)NCC(=O)N[C@@H](CCCNC(=N)N)C(=O)NCC(=O)N[C@H](C(=O)N[C@@H](CCCNC(=N)N)C(=O)N1CCC[C@H]1C(=O)N[C@H](C(=O)NCC(=O)N[C@@H](CCCNC(=N)N)C(=O)N[C@@H](Cc1ccc([N+](=O)[O-])cc1)C(N)=O)C(C)C)[C@@H](C)CC)[C@@H](C)O)[C@@H](C)CC)[C@@H](C)O)[C@@H](C)O [Analog 16] (H-SRAHQHS[Nle]ETRTPDINPAWYTGRGIRPVGR[Phe(4-NO2)]-NH2; N-terminus assumed)
5 | 225 | 230 |  |  | TPDINPAWYASRPFRPVGRF-NH2 [Analog 33]
6 | 0.7 | 0.8 |  |  | TPDINPAWYTGRGARPFGRF-NH2 [Analog 31]
7 | 113 | 168 |  |  | CCCC[C@H](N)C(=O)N[C@@H](CCC(=O)O)C(=O)N[C@H](C(=O)N[C@@H](CCCNC(=N)N)C(=O)N[C@H](C(=O)N1CCC[C@H]1C(=O)N[C@@H](CC(=O)O)C(=O)N[C@H](C(=O)N[C@@H](CC(N)=O)C(=O)N1CCC[C@H]1C(=O)N[C@@H](C)C(=O)N[C@@H](Cc1c[nH]c2ccccc12)C(=O)N[C@@H](Cc1ccc(O)cc1)C(=O)N[C@H](C(=O)NCC(=O)N[C@@H](CCCNC(=N)N)C(=O)NCC(=O)N[C@H](C(=O)N[C@@H](CCCNC(=N)N)C(=O)N1CCC[C@H]1C(=O)N[C@H](C(=O)NCC(=O)N[C@@H](CCCNC(=N)N)C(=O)N[C@@H](Cc1ccccc1)C(N)=O)C(C)C)[C@@H](C)CC)[C@@H](C)O)[C@@H](C)CC)[C@@H](C)O)[C@@H](C)O [Analog 35] (H-[Nle]ETRTPDINPAWYTGRGIRPVGRF-NH2)
8 | 45 | 51 |  |  | CCCC[C@H](NC(=O)[C@H](CO)NC(=O)[C@H](Cc1c[nH]cn1)NC(=O)[C@H](CCC(N)=O)NC(=O)[C@H](Cc1c[nH]cn1)NC(=O)[C@H](C)NC(=O)[C@H](CCCNC(=N)N)NC(=O)[C@@H](N)CO)C(=O)N[C@@H](CCC(=O)O)C(=O)N[C@H](C(=O)N[C@@H](CCCNC(=N)N)C(=O)N[C@H](C(=O)N1CCC[C@H]1C(=O)N[C@@H](CC(=O)O)C(=O)N[C@H](C(=O)N[C@@H](CC(N)=O)C(=O)N1CCC[C@H]1C(=O)N[C@@H](C)C(=O)N[C@@H](Cc1c[nH]c2ccccc12)C(=O)N[C@@H](Cc1ccc(O)cc1)C(=O)N[C@H](C(=O)NCC(=O)N[C@@H](CCCNC(=N)N)C(=O)NCC(=O)N[C@H](C(=O)N[C@@H](CCCNC(=N)N)C(=O)N1CCC[C@H]1C(=O)N[C@H](C(=O)NCC(=O)N[C@@H](CCCNC(=N)N)C(=O)N[C@@H](Cc1c(F)c(F)c(F)c(F)c1F)C(N)=O)C(C)C)[C@@H](C)CC)[C@@H](C)O)[C@@H](C)CC)[C@@H](C)O)[C@@H](C)O [Analog 21] (H-SRAHQHS[Nle]ETRTPDINPAWYTGRGIRPVGR[Phe(F5)]-NH2)
9 | 66 | 189 |  |  | QHSMETRTPDINPAWYTGRGIRPVGRF-NH2 [Analog 37]
